Reference: article PMC7525093, “Bis-Quinolinium Cyclophane Blockers of SK Potassium Channels Are Antagonists of M3 Muscarinic Acetylcholine Receptors” (Frontiers in Pharmacology, 2020)
“And” between values parts separate entries of the source, which are not always exact repeats. Equal values may be shown once.

Experiments:
mouse lung lower airways = experiment: Bronchial diameter changes in mouse lung slices; settings: 3.5 μM UCL 1684; 0.5 μM carbachol
Procedure: Experiments using mouse lung slices were conducted as described ([Sanderson, 2011]). Eight-week-old Balb/C mice were sacrificed by deep isoflurane anesthesia followed by cervical dislocation. Trachea were isolated, cannulated with a blunt needle and the lungs filled with 3 ml of Hanks balanced salt solution (HBSS) with 2% low-temperature melt agarose at 37°C followed by 0.5 ml of air to clear the airways of agarose. The mouse thoracic cavity was exposed and the lungs chilled with an ice bath. After gelling of the agarose, the lungs were removed and 200 μm sections made with a Leica Vibratome VT1200. The sections were placed in DMEM in a tissue-culture incubator at 37°C for up to 8 h. Experiments measuring diameter changes were conducted using an inverted 10X phase contrast objective and oblique lighting in a constant perfusion (0.5 ml/min) bath of HBSS at 22°C solution.

bladder = experiment: Isometric bladder ring tension measurement; set-up: species or system mouse; settings: 3.5 μM; 0.5 μM carbachol
Procedure: (§1) Mice used in these studies were BALB/C mice from Jackson Labs. All animal procedures were reviewed and approved by the University of Texas Health Science Center at San Antonio Institutional Animal Care and Use Committee. For tracheal constriction studies, animals were deeply anesthetized with isoflurane and then sacrificed by cervical dislocation. Isometric tracheal contraction measurements were performed as previously described ([Semenov et al., 2012]). Trachea were removed and surrounding tissues dissected in ice-cold physiologic saline solution (PSS) consisting of 119 mM NaCl, 4.7 mM KCl, 2.0 mM CaCl2, 1.0 mM KH2PO4, 1.17 mM MgSO4, 18 mM NaHCO3, 0.026 mM EDTA, 11 mM glucose, and 12.5 mM sucrose. Trachea were cut below the pharynx and above the primary bronchus bifurcation. Two metal wires, attached to a force transducer and micrometer (Radnoti, LLC), were threaded into the lumen of the trachea. Trachea were placed into an oxygenated organ bath (95% O2, 5% CO2), at 37°C, pH 7.35 (after bubbling with 95% O2–5% CO2). Tracheal resting tension was readjusted to 1 gram over 1 h and then challenged with 67 mM potassium PSS with NaCl adjusted to 56.7 mM to maintain proper osmolarity (KPS). Trachea were challenged two or more times until reproducible contractile responses were achieved. All subsequent experimental drug responses were normalized to the KPS response. […]

aorta = experiment: Isometric aortic ring tension measurement; set-up: species or system mouse; settings: 3.5 μM; precontracted to 300 nM phenylephrine
Procedure: as §1

M1 muscarinic receptor = molecular target: T1, M1 muscarinic receptor (Homo sapiens, UniProt P11229); experiment: R-CEPIAer ER calcium assay, CHO cells transiently transfected with M1 receptor; assay type: cell-based
T1 construct: expressed in transfected cells; host or cells: CHO cells, transiently co-transfected with pCMV R-CEPIAer
T1 sequence (P11229 1-460): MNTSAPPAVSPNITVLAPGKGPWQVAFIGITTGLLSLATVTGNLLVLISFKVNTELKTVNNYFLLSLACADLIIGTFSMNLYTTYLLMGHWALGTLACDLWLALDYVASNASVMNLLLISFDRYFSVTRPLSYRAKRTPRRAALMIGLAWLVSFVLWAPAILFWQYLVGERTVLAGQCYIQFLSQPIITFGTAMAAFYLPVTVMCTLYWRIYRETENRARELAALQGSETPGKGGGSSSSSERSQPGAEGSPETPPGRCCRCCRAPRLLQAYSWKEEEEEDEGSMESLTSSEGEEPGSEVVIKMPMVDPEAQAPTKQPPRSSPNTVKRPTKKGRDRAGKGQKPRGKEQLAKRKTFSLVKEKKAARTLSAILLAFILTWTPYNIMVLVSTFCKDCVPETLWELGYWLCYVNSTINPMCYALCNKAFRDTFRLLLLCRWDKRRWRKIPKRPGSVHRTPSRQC
Procedure: [Worded in the source for another target; used here, by the source, with some conditions changed.] The binding of antagonists to Gq-coupled receptors was determined by measuring IP3-mediated calcium depletion from the endoplasmic reticulum (ER). This was accomplished using CHO-K1 cells stably transfected with human M3 muscarinic acetylcholine receptor (CEM3000000, cDNA Resource Center, Bloomsburg University) and R-CEPIAer, a low affinity ER-targeted calcium indicator fluorescent protein ([Suzuki et al., 2014]). R-CEPIAer reporting of ER calcium concentration was assessed using 564 nm excitation light (>590 long-pass emission) at 20 second intervals on a Nikon swept-field confocal microscope using slit-scan mode, 2x2 Binning, and 100 millisecond frames. F/Fmax was fluorescence intensity normalized to maximal fluorescence intensity during the experiment. The response of cells to Gq-coupled receptor agonist were measured as the change in F/Fmax (ΔF/Fmax) from preagonist value to fluorescence minimum during agonist application (that occurs by IP3-mediated ER calcium depletion). […] Perfusion of each agonist application was for 2 min, while the antagonist overlapped and preceded the second agonist application by 3 min. […] IC50 was calculated by assaying fractional inhibition using a dose-response of antagonist concentrations (i.e. Figure 1D ). […]

c1cc2cc(c1)C[n+]1ccc(c3ccccc31)NCc1ccc(cc1)CNc1cc[n+](c3ccccc13)C2 [UCL 1684, 6,12,19,20,25,26-Hexahydro-5,27:13,18:21,24-trietheno-11,7-metheno-7H-dibenzo [b,n] [1,5,12,16]tetraazacyclotricosine-5,13-diium dibromide]
Bronchial diameter during second carbachol challenge normalized to first challenge (mouse lung lower airways): 178.3% and 178.3 ± 19.0% | Relaxation response of bladder (bladder): 31.4 ± 8.4 | Relaxation response of aorta (aorta): 7.8 ± 4.3 | IC50 (M1 muscarinic receptor): 120 nM | Hill slope of inhibition curve, M1 receptor (M1 muscarinic receptor; 0.5 μM carbachol): 0.67 ± 0.5
